Results on one substance are retold here after patent US8309111B2, “High alcohol content foaming compositions with silicone-based surfactants” (Deb Worldwide Healthcare Inc., priority 2005, dated 2012).

This data set is described as follows: Foam evaluation of the prepared solutions: whether foam was produced, and foam description and quality. The class given is physicochemical. As for the experimental part:
Examples 1 through 12 were prepared to illustrate the ability to produce alcohol-based disinfecting formulations which can be dispensed as foams using different surfactants and a solution of water and 50% ethanol. Examples 13 through 16 illustrate increasing concentrations of a silicone-based surfactant to produce foam with 40% ethanol. Examples 17 through 32 show increasing concentrations of ethanol with different silicone-based surfactants to produce foam. Examples 33 through 36 illustrate increasing concentrations of a silicone-based surfactant to produce acceptable foam at 62% ethanol. Examples 37 through 52 illustrate the ability to produce foam using different surfactants and a solution of 70% v/v Isopropanol. All parts and percentages are expressed by weight unless otherwise indicated.
The following examples were intended to evaluate the foaming ability of different groups of silicone surfactants with different combinations of ethanol, n-propyl alcohol and Isopropyl alcohol. They were also designed to asses the effect in the after feel as well as in the foam quality of some emollients and humectants, lipids, and other cosmetic type desired ingredients to be used with a leave-on hand sanitizer product. […]
The solutions prepared, were evaluated as to whether foam was produced or not and if so, then the foam produced was described as follows: […]

Take Cocamidopropyl betaine: under “CAPB alone, 40% ethanol, 3% CAPB, versus 60% v/v ethanol with less than 1.0% silicone-based surfactant”, the “Foam result compared with silicone-based surfactants” value is “unable to produce as good results”. The Acceptable foam result (above 40% ethanol) was “does not give any acceptable foam”.
